Values quoted from earlier work, collected in patent US9504677B2, “Substituted N-aryl pyridinones” (Auspex Pharmaceuticals, Inc., priority 2007, dated 2016).

Assays:
[1] = humans

For `Cc1ccc(=O)n(-c2ccccc2)c1` [Pirfenidone, 5-methyl-1-phenyl-1H-pyridin-2-one], the DNA synthesis (leiomyoma cells) is given as “inhibits DNA synthesis”, the DNA synthesis (myometrial cells) is given as “inhibits DNA synthesis” and the “efficacy in rodent disease models” value (rodent disease models) is given as “effective”. For the same compound, the half-life [1] was “very short”.
